From PubChem BioAssay (NCI)
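Assay format: 96-well plates, 48-hour exposure. Here, GI50 denotes the concentration required for 50% inhibition of growth. At the TGI there is no net growth.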

How the values were obtained:
Experiment in all cases: inhibition of tumour cell growth, NCI panel, 48 h
MDA-MB-435 = test system: MDA-MB-435
M14 melanoma = test system: M14 melanoma
UO-31 renal = test system: UO-31 renal
A498 renal = test system: A498 renal
LOX IMVI melanoma = test system: LOX IMVI melanoma
OVCAR-5 ovarian = test system: OVCAR-5 ovarian
UACC-62 melanoma = test system: UACC-62 melanoma
HCT-15 colon = test system: HCT-15 colon
SR leukemia = test system: SR leukemia
OVCAR-3 ovarian = test system: OVCAR-3 ovarian
SN12C renal = test system: SN12C renal
KM12 colon = test system: KM12 colon
HCT-116 colon = test system: HCT-116 colon
MALME-3M melanoma = test system: MALME-3M melanoma
OVCAR-8 ovarian = test system: OVCAR-8 ovarian
MDA-MB-231 breast = test system: MDA-MB-231 breast
HOP-92 NSCLC = test system: HOP-92 NSCLC
MCF7 breast = test system: MCF7 breast
DU-145 prostate = test system: DU-145 prostate
BT-549 breast = test system: BT-549 breast
NCI-H23 lung = test system: NCI-H23 lung
HL-60(TB) leukemia = test system: HL-60(TB) leukemia
UACC-257 melanoma = test system: UACC-257 melanoma
SF-268 CNS = test system: SF-268 CNS
HCC-2998 colon = test system: HCC-2998 colon
SW-620 colon = test system: SW-620 colon
CCRF-CEM leukemia = test system: CCRF-CEM leukemia
HT29 colon = test system: HT29 colon
786-0 renal = test system: 786-0 renal
IGROV1 ovarian = test system: IGROV1 ovarian
SK-OV-3 ovarian = test system: SK-OV-3 ovarian
NCI-H226 lung = test system: NCI-H226 lung
MOLT-4 leukemia = test system: MOLT-4 leukemia
T-47D breast = test system: T-47D breast
SNB-19 CNS = test system: SNB-19 CNS
SK-MEL-5 melanoma = test system: SK-MEL-5 melanoma
NCI-H522 lung = test system: NCI-H522 lung
HS 578T breast = test system: HS 578T breast
K-562 leukemia = test system: K-562 leukemia
OVCAR-4 ovarian = test system: OVCAR-4 ovarian
A549 NSCLC = test system: A549 NSCLC
SNB-75 CNS = test system: SNB-75 CNS
NCI/ADR-RES ovarian = test system: NCI/ADR-RES ovarian
SK-MEL-28 melanoma = test system: SK-MEL-28 melanoma
ACHN renal = test system: ACHN renal
PC-3 prostate = test system: PC-3 prostate
CAKI-1 renal = test system: CAKI-1 renal
SF-539 CNS = test system: SF-539 CNS
TK-10 renal = test system: TK-10 renal
SK-MEL-2 melanoma = test system: SK-MEL-2 melanoma
U251 CNS = test system: U251 CNS
NCI-H460 lung = test system: NCI-H460 lung
HOP-62 NSCLC = test system: HOP-62 NSCLC
COLO 205 colon = test system: COLO 205 colon
SF-295 CNS = test system: SF-295 CNS
RPMI-8226 leukemia = test system: RPMI-8226 leukemia

## Clc1cc(Br)ccc1-c1ccc(CNCC2CCNCC2)o1
MDA-MB-435
  GI50: 1.84 µM
  TGI: 3.46 µM
M14 melanoma
  GI50: 1.85 µM
  TGI: 3.7 µM
UO-31 renal
  GI50: 1.66 µM
  TGI: 3.24 µM
A498 renal
  GI50: 1.87 µM
  TGI: 4.24 µM
LOX IMVI melanoma
  GI50: 1.86 µM
  TGI: 3.7 µM
OVCAR-5 ovarian
  GI50: 1.89 µM
  TGI: 3.93 µM
UACC-62 melanoma
  GI50: 1.69 µM
  TGI: 3.21 µM
HCT-15 colon
  GI50: 1.86 µM
  TGI: 4.29 µM
SR leukemia
  GI50: 0.444 µM
  TGI: 2.65 µM
OVCAR-3 ovarian
  GI50: 1.75 µM
  TGI: 3.27 µM
SN12C renal
  GI50: 2.23 µM
  TGI: 7.69 µM
KM12 colon
  GI50: 1.71 µM
  TGI: 3.22 µM
HCT-116 colon
  GI50: 1.69 µM
  TGI: 3.97 µM
MALME-3M melanoma
  GI50: 2.33 µM
  TGI: 4.11 µM
OVCAR-8 ovarian
  GI50: 2.19 µM
  TGI: 5.15 µM
MDA-MB-231 breast
  GI50: 1.59 µM
  TGI: 3.42 µM
HOP-92 NSCLC
  GI50: 1.4 µM
  TGI: 4.9 µM
MCF7 breast
  GI50: 1.74 µM
  TGI: 3.35 µM
DU-145 prostate
  GI50: 1.75 µM
  TGI: 3.21 µM
BT-549 breast
  GI50: 1.73 µM
  TGI: 3.5 µM
NCI-H23 lung
  GI50: 3.43 µM
  TGI: 13.6 µM
HL-60(TB) leukemia
  GI50: 1.89 µM
  TGI: 3.99 µM
UACC-257 melanoma
  GI50: 1.85 µM
  TGI: 3.51 µM
SF-268 CNS
  GI50: 1.57 µM
  TGI: 3.04 µM
HCC-2998 colon
  GI50: 1.86 µM
  TGI: 3.45 µM
SW-620 colon
  GI50: 1.85 µM
  TGI: 3.72 µM
CCRF-CEM leukemia
  GI50: 1.58 µM
  TGI: 3.54 µM
HT29 colon
  GI50: 1.44 µM
  TGI: 3.11 µM
786-0 renal
  GI50: 1.55 µM
  TGI: 3.06 µM
IGROV1 ovarian
  GI50: 1.9 µM
  TGI: 3.86 µM
SK-OV-3 ovarian
  GI50: 1.99 µM
  TGI: 3.86 µM
NCI-H226 lung
  GI50: 2.3 µM
  TGI: 6.25 µM
MOLT-4 leukemia
  GI50: 1.7 µM
  TGI: 3.57 µM
T-47D breast
  GI50: 1.98 µM
  TGI: 3.93 µM
SNB-19 CNS
  GI50: 2.3 µM
  TGI: 7.2 µM
SK-MEL-5 melanoma
  GI50: 1.76 µM
  TGI: 3.2 µM
NCI-H522 lung
  GI50: 1.82 µM
  TGI: 3.72 µM
HS 578T breast
  GI50: 1.91 µM
  TGI: 4.37 µM
K-562 leukemia
  GI50: 1.45 µM
  TGI: 3.46 µM
OVCAR-4 ovarian
  GI50: 1.86 µM
  TGI: 4.49 µM
A549 NSCLC
  GI50: 1.9 µM
  TGI: 3.77 µM
SNB-75 CNS
  GI50: 1.26 µM
  TGI: 2.88 µM
NCI/ADR-RES ovarian
  GI50: 3.13 µM
  TGI: 9.69 µM
SK-MEL-28 melanoma
  GI50: 1.89 µM
  TGI: 3.42 µM
ACHN renal
  GI50: 1.93 µM
  TGI: 3.66 µM
PC-3 prostate
  GI50: 1.64 µM
  TGI: 3.3 µM
CAKI-1 renal
  GI50: 1.85 µM
  TGI: 3.58 µM
SF-539 CNS
  GI50: 1.65 µM
  TGI: 3.17 µM
TK-10 renal
  GI50: 1.75 µM
  TGI: 3.37 µM
SK-MEL-2 melanoma
  GI50: 1.75 µM
  TGI: 3.53 µM
U251 CNS
  GI50: 2.17 µM
  TGI: 4.03 µM
NCI-H460 lung
  GI50: 1.87 µM
  TGI: 3.72 µM
HOP-62 NSCLC
  GI50: 1.84 µM
  TGI: 3.43 µM
COLO 205 colon
  GI50: 1.89 µM
  TGI: 3.51 µM
SF-295 CNS
  GI50: 1.94 µM
  TGI: 3.99 µM
RPMI-8226 leukemia
  GI50: 1.86 µM
  TGI: 4.46 µM
